Results as given in the supplement of paper PMC11061612.

Assays:
Assay in all cases: Bliss excess, mean over the matrix (fraction); higher = more synergy
[1] = tested on: A673 (Ewing's Sarcoma)
Procedure, shortened: (§1)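 Bliss excess equals the observed combination effect minus the expected value EA + EB − EA·EB, where EA and EB are the effects of each agent alone. Combination Emax is the second-highest inhibition within the matrix. Inhibition was scaled from CellTiter-Glo 2.0 luminescence, with 0 set by vehicle wells and 1 by blank wells, after 72 hours of two-drug dosing of cells plated in 1536-well plates.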

[2] = tested on: BE-13 (T-Lymphoblastic Leukemia)
Procedure, shortened: as §1

[3] = tested on: GAMG (Glioblastoma)
Procedure, shortened: as §1

[4] = tested on: KS-1 (Glioblastoma)
Procedure, shortened: as §1

[5] = tested on: KYAE-1 (Esophageal Adenocarcinoma)
Procedure, shortened: as §1

[6] = tested on: LNZTA3WT4 (Low Grade Glioma)
Procedure, shortened: as §1

[7] = tested on: SNU-449 (Hepatocellular Carcinoma)
Procedure, shortened: as §1

[8] = tested on: SW1710 (Bladder Carcinoma)
Procedure, shortened: as §1

[9] = tested on: WSU-NHL (B-Cell Non-Hodgkin's Lymphoma)
Procedure, shortened: as §1

[10] = tested on: YAPC (Pancreatic Carcinoma)
Procedure, shortened: as §1

[11] = tested on: NCI-H2052 (Mesothelioma)
Procedure, shortened: as §1

[12] = tested on: CAL-33 (Oral Cavity Carcinoma)
Procedure, shortened: as §1

[13] = tested on: NCI-H2722 (Mesothelioma)
Procedure, shortened: as §1

[14] = tested on: OE21 (Esophageal Squamous Cell Carcinoma)
Procedure, shortened: as §1

SMILES: CS(=O)(=O)CCNCc1ccc(-c2ccc3ncnc(Nc4ccc(OCc5cccc(F)c5)c(Cl)c4)c3c2)o1 [Lapatinib] + Cn1cnc2c(F)c(Nc3ccc(Br)cc3Cl)c(C(=O)NOCCO)cc21 [Selumetinib] (first compound max 10 µM, 7x7, partner max 10 µM)
- Bliss excess [1]: -0.039
- Bliss excess [2]: -0.0253
- Bliss excess [3]: -0.06
- Bliss excess [4]: -0.0387
- Bliss excess [5]: 0.0206
- Bliss excess [6]: -0.0268
- Bliss excess [7]: -0.0601
- Bliss excess [8]: -0.0077
- Bliss excess [9]: -0.0093
- Bliss excess [10]: 0.0037

SMILES: CS(=O)(=O)CCNCc1ccc(-c2ccc3ncnc(Nc4ccc(OCc5cccc(F)c5)c(Cl)c4)c3c2)o1 [Lapatinib] + NC1(c2ccc(-c3nc4ccn5c(=O)[nH]nc5c4cc3-c3ccccc3)cc2)CCC1 [MK-2206] (first compound max 10 µM, 7x7, partner max 10 µM)
- Bliss excess [1]: -0.064
- Bliss excess [2]: -0.0842
- Bliss excess [3]: 0.016
- Bliss excess [4]: -0.0185
- Bliss excess [5]: 0.0176
- Bliss excess [6]: -0.0334
- Bliss excess [11]: -0.0143
- Bliss excess [7]: 0.0446
- Bliss excess [8]: -0.0417
- Bliss excess [9]: -0.0237
- Bliss excess [10]: 0.0208

SMILES: O=C(c1cc(Cc2n[nH]c(=O)c3ccccc23)ccc1F)N1CCN(C(=O)C2CC2)CC1 [Olaparib] + CC1(C)CCC(CN2CCN(c3ccc(C(=O)NS(=O)(=O)c4ccc(NCC5CCOCC5)c([N+](=O)[O-])c4)c(Oc4cnc5[nH]ccc5c4)c3)CC2)=C(c2ccc(Cl)cc2)C1 [Venetoclax] (first compound max 10 µM, 7x7, partner max 1 µM)
- Bliss excess [1]: 0.0169
- Bliss excess [2]: -0.0238
- Bliss excess [3]: -0.0303
- Bliss excess [4]: -0.0442
- Bliss excess [5]: -0.0116
- Bliss excess [6]: -0.0739
- Bliss excess [7]: -0.0418
- Bliss excess [8]: -0.0606
- Bliss excess [9]: 0.0238
- Bliss excess [10]: -0.0282

SMILES: O=C(c1cc(Cc2n[nH]c(=O)c3ccccc23)ccc1F)N1CCN(C(=O)C2CC2)CC1 [Olaparib] + CN(CC[C@H](CSC1=CC=CC=C1)NC2=C(C=C(C=C2)S(=O)(=O)NC(=O)C3=CC=C(C=C3)N4CCC(CC4)[C@H](C5=CC=CC=C5C6=CC=C(C=C6)Cl)O)S(=O)(=O)C(F)(F)F)CCO [AZD4320] (first compound max 10 µM, 7x7, partner max 1 µM)
- Bliss excess [1]: 0.0265
- Bliss excess [2]: 0.0096
- Bliss excess [3]: -0.034
- Bliss excess [4]: -0.041
- Bliss excess [5]: 0.0363
- Bliss excess [6]: -0.0332
- Bliss excess [7]: -0.0422
- Bliss excess [8]: -0.0397
- Bliss excess [9]: 0.0345
- Bliss excess [10]: -0.0169

SMILES: O=C(c1cc(Cc2n[nH]c(=O)c3ccccc23)ccc1F)N1CCN(C(=O)C2CC2)CC1 [Olaparib] + COc1nnc2ccc(N3CCC(c4ccc(OCCN5CCN(C)C(=O)[C@H]5C)cc4)CC3)nn12 [AZD5153] (first compound max 10 µM, 7x7, partner max 1 µM)
- Bliss excess [1]: -0.077
- Bliss excess [2]: -0.0681
- Bliss excess [3]: -0.002
- Bliss excess [4]: -0.0205
- Bliss excess [5]: -0.0202
- Bliss excess [6]: -0.0516
- Bliss excess [7]: -0.0587
- Bliss excess [8]: 0.0021
- Bliss excess [9]: -0.06
- Bliss excess [10]: -0.0239

SMILES: O=C(c1cc(Cc2n[nH]c(=O)c3ccccc23)ccc1F)N1CCN(C(=O)C2CC2)CC1 [Olaparib] + Cc1c2c(nn1C)CSCc1cc(n(C)n1)CSc1cc(c3ccccc3c1)OCCCc1c(C(=O)O)n(C)c3c-2c(Cl)ccc13 [AZD5991] (first compound max 10 µM, 7x7, partner max 1 µM)
- Bliss excess [1]: -0.0566
- Bliss excess [2]: 0.0142
- Bliss excess [3]: -0.0488
- Bliss excess [4]: -0.0463
- Bliss excess [5]: 0.0031
- Bliss excess [6]: -0.0468
- Bliss excess [7]: -0.045
- Bliss excess [8]: -0.0476
- Bliss excess [9]: 0.0217
- Bliss excess [10]: -0.0367

SMILES: CCc1c2c(nc3ccc(O)cc13)-c1cc3c(c(=O)n1C2)COC(=O)[C@]3(O)CC [SN-38] + O=C(c1cc(Cc2n[nH]c(=O)c3ccccc23)ccc1F)N1CCN(C(=O)C2CC2)CC1 [Olaparib] (first compound max 0.3 µM, 7x7, partner max 10 µM)
- Bliss excess [1]: 0.0875
- Bliss excess [2]: 0.0503
- Bliss excess [12]: 0.0519
- Bliss excess [3]: 0.109
- Bliss excess [4]: 0.0068
- Bliss excess [5]: -0.0184
- Bliss excess [6]: -0.0114
- Bliss excess [13]: 0.0188
- Bliss excess [14]: -0.0198
- Bliss excess [7]: -0.0319
- Bliss excess [8]: 0.037
- Bliss excess [9]: 0.044
- Bliss excess [10]: 0.0336

SMILES: Cc1nc(-c2cn3c(n2)-c2ccc(-c4cnn(C(C)(C)C(N)=O)c4)cc2OCC3)n(C(C)C)n1 [Taselisib] + O=C(Nc1ccc2[nH]nc(-c3ccncc3)c2c1)[C@@H]1CCN(CC(=O)N2CCN(c3ccc(-c4ncccn4)cc3)CC2)C1 [SCH772984] (first compound max 10 µM, 7x7, partner max 5 µM)
- Bliss excess [1]: 0.131
- Bliss excess [2]: -0.0347
- Bliss excess [3]: 0.0241
- Bliss excess [4]: 0.0097
- Bliss excess [5]: -0.0018
- Bliss excess [6]: -0.0617
- Bliss excess [7]: 0.0076
- Bliss excess [8]: -0.0048
- Bliss excess [9]: 0.037
- Bliss excess [10]: 0.134

SMILES: CC1(C)CCC(CN2CCN(c3ccc(C(=O)NS(=O)(=O)c4ccc(NCC5CCOCC5)c([N+](=O)[O-])c4)c(Oc4cnc5[nH]ccc5c4)c3)CC2)=C(c2ccc(Cl)cc2)C1 [Venetoclax] + CS(=O)(=O)CCNCc1ccc(-c2ccc3ncnc(Nc4ccc(OCc5cccc(F)c5)c(Cl)c4)c3c2)o1 [Lapatinib] (first compound max 1 µM, 7x7, partner max 10 µM)
- Bliss excess [1]: -0.0426
- Bliss excess [2]: -0.0101
- Bliss excess [3]: -0.0231
- Bliss excess [4]: -0.0411
- Bliss excess [5]: 0.0085
- Bliss excess [6]: -0.0178
- Bliss excess [7]: -0.0572
- Bliss excess [8]: -0.0415
- Bliss excess [9]: 0.0482
- Bliss excess [10]: -0.012
